According to US20070117842A1, “Polymorph of 4-[3-chloro-4-(cyclopropylaminocarbonyl)aminophenoxy]-7-methoxy-6- quinolinecarboxamide and a process for the preparation of the same” (priority 2003, published 2007):
Converted amounts (≈) assume the structure as drawn. Values belong to the compound of their own block, whether it stands above or below them.

Columns and labels:
[1] = Hygroscopicity test by a desiccator method; assay type: physicochemical; conditions: for water content: Karl Fischer method
Protocol: (Hygroscopicity Test by a Desiccator Method) The hygroscopicities of the crystals obtained in Examples 1d and 2d were evaluated by a desiccator method. […] Weighing bottles (in opened caps) were used for containers, and MIR-552 (Sanyo) was used for a storage apparatus. [table] The powder X-ray diffraction analysis was carried out under the following conditions. The water content was measured (by the Karl Fischer method) by using the following apparatus and reagents.

[2] = Hygroscopicity test by microbalance method; assay type: physicochemical; conditions: 25° C.
Protocol: (Hygroscopicity Test by Microbalance Method)
The higroscopicities of the crystals obtained in Examples 1d and 2d were evaluated by microbalance method. An apparatus and conditions employed were as follows.
Apparatus: Integrated microbalance system MB 300W (VTI Co.)
Relative humidity step: 5 to 95 by 5
Equilibrium Criteria: 0.0050 wt % (5 minutes)
Maximum equilibrium time: 120 minutes
The results of measuring the higroscopicities of the crystals obtained in Examples 1d and 2d by microbalance method are shown in FIGS. 13 and 14, respectively. As is seen from the results shown in these figures, within the range of 5-95% of relative humidity, the polymorph (A) gave a weight change of 1% and the polymorph (B) gave that of 1.5%.

[3] = Solid stability test (1 month storage; appearance, water content, HPLC purity and residual ratio, powder X-ray diffraction); assay type: physicochemical; conditions: for impurity / remaining percent: HPLC; for water content: Karl Fischer method
Protocol: (Solid Stability Test) The solid stabilities of the crystal obtained in Examples 1d and 2d were evaluated. […] The water content measurement and the powder X-ray diffraction measurement were carried out by the same method as described in the hygroscopicity test by the dessiccator method. Further, the purity test and the residual ratio (percent) measurement by HPLC were carried out by the same method as described above, except for the condition that the column temperature was 35° C. In this connection, the residual ratio (percent) (measurement by HPLC) was defined as stated bellow by using the crystal stored under the condition C as the standard and its solution as the standard solution. Remaining percent (%)=[(Peak area of the sample solution)×(Weighed amount of the standard: in terms of a dehydrate (mg))]×100/[(Peak area of the standard solution)×(Weighed amount of the sample: in terms of a dehydrate (mg))] [table]

[4] = Solubility test (pH 3, Britton Robinson buffer); assay type: physicochemical; conditions: for solubility (concentration in filtrate): pH 3 Britton Robinson buffer, 25-26° C.; for pH of the filtrate: solubility test
Protocol: (Solubility Test) The solubilities (pH 3) of the crystals obtained in Examples 1d and 2d were evaluated by the following method. About 3 mg of the crystals obtained in Examples 1d and 2d were weighed and each of them was put in a 10 mL screw-capped transparent test tube. 5 mL of a buffer solution (Britton Robinson buffer, pH 3.091, ionic strength I=0.3) was added to each of the test tubes to prepare the test solutions. The test tubes were wrapped with aluminum foil to shield from light, and shaken by a shaker (MS-1 Iuchi Seieido) in the following conditions. Temperature: 25-26° C. (a temperature in a laboratory) Shaking frequency: 150 times/minute Shaking time: 3 hours and 5 hours Respective sample solutions after shaking were filtered ([…], Sample LCR13-LG, Millipore Co.), and each 1 mL of the initial filtrate was discarded. Each of accurately pipetted 1 mL of the filtrates was put in a 10 mL test tube, to which accurately pipetted 1 mL of a mixed solution of water/acetonitrile (1:1 (v/v)) was added to prepare a solution for the HPLC analysis. The HPLC conditions were as follows. A standard solution for the HPLC analysis were prepared as follows. About 10 mg of the crystals obtained in Example 2d was accurately weighed, to which a mixed solution of water/acetonitrile/ammonium acetate (100:100:0.1, v/v/w) was added to give accurate 100 mL to prepare a stock standard solution. Accurately pipetted 5 mL of the stock control solution was added with a mixed solution of water/acetonitrile/ammonium acetate (100:100:0.1, v/v/w) to give accurate 25 mL to prepare the standard solution for the HPLC analysis. Regarding a blank solution, a mixed solution of water/acetonitrile/ammonium acetate (100:100:0.1, v/v/w) was used. The standard solution and respective filtrates were analyzed by HPLC to measure concentrations (mg/mL) of 4-(3-chloro-4-(cyclopropylaminocarbonyl)aminophenoxy)-7-methoxy-6-quinolinecarboxamide in respective filtrates according to the following equation. Concentration (mg/mL)=(Concentration in the standard solution, mg/mL)×[(Peak area in each filtrate)×2/(Peak area in the standard solution)] As is evident from the results, there was no significant difference in the solubility at pH 3 between the polymorphs (A) and (B).

[5] = Crystal transition between polymorphs in heated suspension; assay type: physicochemical; conditions: 60° C., 3 hours, listed as polymorph (B)
Protocol: These suspensions were filtered to collect 4-(3-chloro-4-(cyclopropylaminocarbonyl)aminophenoxy)-7-methoxy-6-quinolinecarboxamide (184 to 266 mg).
These suspensions were filtered to collect 4-(3-chloro-4-(cyclopropylaminocarbonyl)aminophenoxy)-7-methoxy-6-quinolinecarboxamide (141 to 256 mg).

[6] = system: small cell lung cancer cell line H-526 expressing c-Kit kinase; experiment: Effect on cell proliferation stimulated by SCF; assay type: cell-based; conditions: Homo sapiens, NCI-H526; H-526 cells, SCF stimulation, 7th day, Cell Counting Kit-8; read-out: IC50 (concentration required for 50% inhibition of the cell proliferation)
Protocol: After culturing, H-526 cells were washed with PBS three times and were suspended in an RPMI1640 medium containing 0.1% BSA (Sigma Corporation) (hereinafter abbreviated as “BSA-RPMI1640”) at 1.0×10^5 cells/ml. […] After color development, the absorbance of each well was determined using a MTP-32 plate reader (Colona Electric Co., Ltd.) at a measuring wavelength of 450 nm and at a reference wavelength of 660 nm. The absorbance of each well was subtracted by the absorbance of the well without addition of SCF, and then the ratio of the absorbance of the well with addition of the test substance to the ratio of the absorbance of the well without addition of the test substance was determined. This ratio was used to calculate the concentration of the test substance required for 50% inhibition of the cell proliferation (IC50).

[7] = condition A: 25° C., 75% relative humidity, stored 1 week
[8] = condition B: 25° C., 93% relative humidity, stored 1 week
[9] = desiccator method, 25° C., 75% or 93% relative humidity, 1 week
[10] = condition C: −20° C., brown screw vial, closed, 1 month
[11] = condition D: 25° C., 1000lx, shading with aluminum foil, quartz tube, closed, 1 month
[12] = condition E: 25° C., 1000lx, quartz tube, closed, 1 month
[13] = condition F: 40° C., 75% RH, brown screw vial, open, 1 month
[14] = condition G: 60° C., brown screw vial, closed, 1 month

appearance [1, 7]: pale brownish
water content [1, 7]: 0.5 wt %
appearance [1, 8]: pale brownish
water content [1, 8]: 0.5 wt %
crystal transition [1, 9]: no perceivable crystal transition
hygroscopicity [1, 9]: no perceivable hygroscopicitiy
appearance ([1]; prior to storage): pale brownish
water content ([1]; prior to storage): 0.5 wt %
hygroscopicity ([2]; microbalance method, 5-95% relative humidity): no perceivable hygroscopisity
weight change ([2]; within the range of 5-95% of relative humidity, listed as polymorph (B)): 1.5%
appearance [3, 10]: pale brownish
impurity [3, 10]: 1.55%
remaining percent ([3]; condition C: −20° C., brown screw vial, closed, 1 month, condition C is the standard): (100) %
water content [3, 10]: 0.4 wt %
appearance [3, 11]: pale brownish
impurity [3, 11]: 1.54%
remaining percent ([3]; condition D: 25° C., 1000lx, shading with aluminum foil, quartz tube, closed, 1 month, vs condition C standard): 101.8%
water content [3, 11]: 0.3 wt %
appearance [3, 12]: pale brownish
impurity [3, 12]: 1.55%
remaining percent ([3]; condition E: 25° C., 1000lx, quartz tube, closed, 1 month, vs condition C standard): 100.5%
water content [3, 12]: 0.3 wt %
appearance [3, 13]: pale brownish
impurity [3, 13]: 1.54%
remaining percent ([3]; condition F: 40° C., 75% RH, brown screw vial, open, 1 month, vs condition C standard): 100.4%
water content [3, 13]: 0.4 wt %
appearance [3, 14]: pale brownish
impurity [3, 14]: 1.53%
remaining percent ([3]; condition G: 60° C., brown screw vial, closed, 1 month, vs condition C standard): 101.3%
water content [3, 14]: 0.5 wt %
appearance ([3]; prior to storage): pale brownish
impurity ([3]; prior to storage): 1.53%
water content ([3]; prior to storage): 0.5 wt %
change on storage (solid stability) ([3]; stored for 1 month, any storage conditions): no change was observed
solubility (concentration in filtrate) ([4]; shaking time 3 hours): 62 µg/mL (≈ 145 µM)
solubility (concentration in filtrate) ([4]; shaking time 5 hours): 54 µg/mL (≈ 127 µM)
pH of the filtrate ([4]; shaking time 3 hours): 3.109
pH of the filtrate ([4]; shaking time 5 hours): 3.106
crystal form after suspension ([5]; 300 mg in DMSO (1.7 mL) and 33% (v/v) acetone-water (0.17, 0.34, 0.51 or 0.85 mL)): all of them remained the polymorph (B)
dissolution in DMSO ([5]; 300 mg in DMSO (1.7 mL), without 33% acetone-water): most of the polymorph (B) dissolved
Compound: COc1cc2nccc(Oc3ccc(NC(=O)NC4CC4)c(Cl)c3)c2cc1C(N)=O [Example 2d, 4-(3-chloro-4-(cyclopropylaminocarbonyl)aminophenoxy)-7-methoxy-6-quinolinecarboxamide]

IC50 [6]: 301 nM
Compound: CCCNC(=O)Nc1ccc(Oc2ncnc3cc(OC)c(OC)cc23)cc1Cl [KRN633, reference compound]
